Results published in ChEMBL document CHEMBL5042492, “Noncovalent CDK12/13 dual inhibitors-based PROTACs degrade CDK12-Cyclin K complex and induce synthetic lethality with PARP inhibitor” (Eur J Med Chem, 2022).
Activity calls are given as the source filed them. No cut-off for these calls is given here.

How the values were obtained:
CDK12/Cyclin K = CDK12/Cyclin K (Homo sapiens, UniProt Q9NYV4); test: Inhibition of human CDK12 (696 to 1082 residues) /cyclinK (1 to 300 residues) using ac-YSPTSPpSYSPTSFpS-YSPTSPpSY-[PEG2]-RR-amid peptide as substrate in presence of ATP measured after 2 hrs by ADP-Glo kinase assay; assay type: protein-complex assay
Chain of CDK12/Cyclin K (O75909 whole entry, the tested form may be a part): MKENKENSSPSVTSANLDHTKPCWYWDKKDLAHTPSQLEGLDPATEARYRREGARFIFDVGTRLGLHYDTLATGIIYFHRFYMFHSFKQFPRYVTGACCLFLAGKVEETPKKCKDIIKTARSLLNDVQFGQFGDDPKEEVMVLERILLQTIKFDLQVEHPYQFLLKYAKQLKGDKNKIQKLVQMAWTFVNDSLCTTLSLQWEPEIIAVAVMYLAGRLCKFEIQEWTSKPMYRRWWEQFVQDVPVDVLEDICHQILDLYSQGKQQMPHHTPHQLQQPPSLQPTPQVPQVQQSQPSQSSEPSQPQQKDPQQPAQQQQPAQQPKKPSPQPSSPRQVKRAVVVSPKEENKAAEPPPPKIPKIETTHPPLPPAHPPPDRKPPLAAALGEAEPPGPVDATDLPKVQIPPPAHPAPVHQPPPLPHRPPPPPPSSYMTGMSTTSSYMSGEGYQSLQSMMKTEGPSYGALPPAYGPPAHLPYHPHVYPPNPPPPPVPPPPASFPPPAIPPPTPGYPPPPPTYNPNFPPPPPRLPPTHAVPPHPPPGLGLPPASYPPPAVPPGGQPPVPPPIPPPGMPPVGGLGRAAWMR
Chain of CDK12/Cyclin K (Q9NYV4 whole entry, the tested form may be a part): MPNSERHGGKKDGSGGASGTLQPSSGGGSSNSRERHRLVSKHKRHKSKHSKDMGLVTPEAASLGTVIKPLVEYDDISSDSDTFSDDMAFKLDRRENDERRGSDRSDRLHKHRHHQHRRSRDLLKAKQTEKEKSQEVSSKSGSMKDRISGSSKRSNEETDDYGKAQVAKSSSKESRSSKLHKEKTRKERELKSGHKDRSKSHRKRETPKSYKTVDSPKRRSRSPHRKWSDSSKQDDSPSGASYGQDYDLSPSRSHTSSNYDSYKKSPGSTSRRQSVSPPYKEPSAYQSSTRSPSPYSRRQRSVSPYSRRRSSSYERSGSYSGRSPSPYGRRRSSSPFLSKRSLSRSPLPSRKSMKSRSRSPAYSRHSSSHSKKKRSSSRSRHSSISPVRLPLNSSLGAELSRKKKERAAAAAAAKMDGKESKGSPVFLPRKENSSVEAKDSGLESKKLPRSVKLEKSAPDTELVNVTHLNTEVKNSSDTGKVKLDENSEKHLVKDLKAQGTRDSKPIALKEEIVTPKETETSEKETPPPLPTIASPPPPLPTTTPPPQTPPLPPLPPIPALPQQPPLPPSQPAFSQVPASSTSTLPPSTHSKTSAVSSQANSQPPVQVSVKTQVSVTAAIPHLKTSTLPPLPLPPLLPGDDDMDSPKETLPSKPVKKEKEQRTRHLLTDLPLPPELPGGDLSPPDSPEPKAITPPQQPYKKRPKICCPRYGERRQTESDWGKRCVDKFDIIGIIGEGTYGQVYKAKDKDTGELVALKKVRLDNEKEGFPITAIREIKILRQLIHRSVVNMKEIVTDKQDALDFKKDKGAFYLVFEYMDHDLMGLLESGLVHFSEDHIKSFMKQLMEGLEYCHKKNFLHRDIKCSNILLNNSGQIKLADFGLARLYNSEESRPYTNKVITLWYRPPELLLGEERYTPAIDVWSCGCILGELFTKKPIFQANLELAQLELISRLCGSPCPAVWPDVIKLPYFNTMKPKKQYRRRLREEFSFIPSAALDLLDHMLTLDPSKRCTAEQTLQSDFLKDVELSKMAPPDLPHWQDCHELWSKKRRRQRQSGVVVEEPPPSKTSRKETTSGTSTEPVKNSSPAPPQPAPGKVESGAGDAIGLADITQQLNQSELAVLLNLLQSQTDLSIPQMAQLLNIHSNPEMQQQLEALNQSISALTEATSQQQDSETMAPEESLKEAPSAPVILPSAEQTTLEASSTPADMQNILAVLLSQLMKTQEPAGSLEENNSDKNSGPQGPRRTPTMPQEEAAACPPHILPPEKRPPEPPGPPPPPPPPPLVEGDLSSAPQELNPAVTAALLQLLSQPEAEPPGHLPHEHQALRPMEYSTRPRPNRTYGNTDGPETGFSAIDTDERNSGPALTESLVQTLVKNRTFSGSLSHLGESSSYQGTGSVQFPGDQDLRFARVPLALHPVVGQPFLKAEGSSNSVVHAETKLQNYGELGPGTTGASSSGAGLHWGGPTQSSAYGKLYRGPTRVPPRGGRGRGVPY

[1] = target: T1, Protein cereblon/Cyclin-K/Cyclin-dependent kinase 12 (Homo sapiens, UniProt O75909+Q9NYV4+Q96SW2); test: Protac activity at human CRBN/CDK12/CycK in human Bel-7402 cells assessed as degradation of CDK12 at 3 uM measured after 24 hrs by Western blotting assay; assay type: cell-based
T1 sequence (O75909 whole entry, looked up): as the sequence (O75909 whole entry, the tested form may be a part) above
T1 sequence (Q96SW2 whole entry, looked up): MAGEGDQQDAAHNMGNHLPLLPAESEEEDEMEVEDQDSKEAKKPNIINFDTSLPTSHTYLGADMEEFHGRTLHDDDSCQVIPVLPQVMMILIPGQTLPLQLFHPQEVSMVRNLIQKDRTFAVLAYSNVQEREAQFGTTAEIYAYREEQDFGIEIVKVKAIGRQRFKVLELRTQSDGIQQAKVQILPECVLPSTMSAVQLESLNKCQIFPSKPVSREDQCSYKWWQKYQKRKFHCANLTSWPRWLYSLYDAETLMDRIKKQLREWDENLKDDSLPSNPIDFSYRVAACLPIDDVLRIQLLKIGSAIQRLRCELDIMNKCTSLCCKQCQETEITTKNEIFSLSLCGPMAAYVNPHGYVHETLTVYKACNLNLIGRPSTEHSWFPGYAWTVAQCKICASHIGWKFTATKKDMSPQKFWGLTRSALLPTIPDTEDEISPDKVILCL
T1 sequence (Q9NYV4 whole entry, looked up): as the sequence (Q9NYV4 whole entry, the tested form may be a part) above

[2] = target: T1, Protein cereblon/Cyclin-K/Cyclin-dependent kinase 12; test: Protac activity at human CRBN/CDK12/CycK in human MDA-MB-231 cells assessed as degradation of CDK12 at 3 uM measured after 24 hrs by Western blotting assay; assay type: cell-based
[3] = target: Cyclin-dependent kinase 13 (Homo sapiens) (UniProt Q14004); test: Inhibition of human N-terminal FLAG-tagged CDK13 (600 to 1100 residues) using GST-tagged CTD as substrate at 3 uM for 2 hrs by western blot analysis
Chain of Cyclin-dependent kinase 13 (Homo sapiens) (Q14004 whole entry, looked up, the tested form may be a part): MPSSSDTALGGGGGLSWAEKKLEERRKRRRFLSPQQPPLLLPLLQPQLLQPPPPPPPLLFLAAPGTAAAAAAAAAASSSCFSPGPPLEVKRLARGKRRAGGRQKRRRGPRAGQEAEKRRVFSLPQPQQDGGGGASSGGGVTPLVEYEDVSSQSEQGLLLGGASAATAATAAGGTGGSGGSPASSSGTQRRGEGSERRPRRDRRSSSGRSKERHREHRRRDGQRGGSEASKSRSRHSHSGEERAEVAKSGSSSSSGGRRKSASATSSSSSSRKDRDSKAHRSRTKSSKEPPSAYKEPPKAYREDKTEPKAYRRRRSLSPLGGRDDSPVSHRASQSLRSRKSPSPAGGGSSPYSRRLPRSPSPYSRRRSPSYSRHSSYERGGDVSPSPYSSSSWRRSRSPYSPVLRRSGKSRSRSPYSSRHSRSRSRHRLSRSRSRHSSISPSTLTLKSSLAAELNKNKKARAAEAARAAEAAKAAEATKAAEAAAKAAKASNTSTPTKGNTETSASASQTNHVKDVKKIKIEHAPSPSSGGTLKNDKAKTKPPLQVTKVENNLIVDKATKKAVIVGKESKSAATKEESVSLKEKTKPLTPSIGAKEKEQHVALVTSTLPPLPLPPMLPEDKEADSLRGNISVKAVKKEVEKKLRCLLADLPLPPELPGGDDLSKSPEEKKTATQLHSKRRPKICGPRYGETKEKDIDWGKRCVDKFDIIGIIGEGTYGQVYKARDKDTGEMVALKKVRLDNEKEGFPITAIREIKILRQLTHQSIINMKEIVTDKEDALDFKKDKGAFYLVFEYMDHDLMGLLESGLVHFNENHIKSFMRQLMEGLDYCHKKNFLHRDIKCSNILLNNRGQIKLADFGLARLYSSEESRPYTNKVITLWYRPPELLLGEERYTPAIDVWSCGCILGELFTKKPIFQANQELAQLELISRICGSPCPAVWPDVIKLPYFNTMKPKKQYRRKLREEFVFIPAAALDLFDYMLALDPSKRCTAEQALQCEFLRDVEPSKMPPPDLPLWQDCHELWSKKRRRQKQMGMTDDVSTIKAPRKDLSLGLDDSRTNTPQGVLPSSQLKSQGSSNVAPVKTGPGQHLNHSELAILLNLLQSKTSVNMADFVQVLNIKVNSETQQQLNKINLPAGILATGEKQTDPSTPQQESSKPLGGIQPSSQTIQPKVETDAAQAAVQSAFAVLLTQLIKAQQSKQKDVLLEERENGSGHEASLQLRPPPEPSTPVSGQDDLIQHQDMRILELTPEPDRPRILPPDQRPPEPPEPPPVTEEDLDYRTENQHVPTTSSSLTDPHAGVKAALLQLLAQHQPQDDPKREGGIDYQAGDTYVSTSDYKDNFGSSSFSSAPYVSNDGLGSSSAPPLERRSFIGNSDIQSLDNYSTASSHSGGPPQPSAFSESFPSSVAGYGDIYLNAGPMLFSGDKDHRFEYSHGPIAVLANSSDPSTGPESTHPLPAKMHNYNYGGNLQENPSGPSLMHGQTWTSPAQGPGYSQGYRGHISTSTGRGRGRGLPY

| Structure (SMILES) | IC50 (CDK12/Cyclin K) [nM] | Activity [1] | Activity [2] | inhibition [3] |
| --- | --- | --- | --- | --- |
| CC(C)n1cnc2c(NCc3nc4cc(F)c(NCCCCCCCCCCCCNC(=O)COc5cccc6c5C(=O)N(C5CCC(=O)NC5=O)C6=O)cc4[nH]3)nc(N3CCOCC3)nc21 (configuration not stated) | 2000 | Active | Active | inactive |
| CC(C)n1cnc2c(NCc3nc4cc(F)c(NCCCCCCNC(=O)COc5cccc6c5C(=O)N(C5CCC(=O)NC5=O)C6=O)cc4[nH]3)nc(N3CCOCC3)nc21 (configuration not stated) | 119 | Active | Active |  |
